Data as given in PubChem BioAssay (NCI).
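Assay format: 96-well plates, 48-hour exposure. GI50 = concentration required for 50% inhibition of growth. Definition used: TGI = concentration required for complete inhibition of growth.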

Experiments:
Assay in all cases: DTP human tumour cell line panel, 48 h
[1] = test system: HCT-15 colon
[2] = test system: HOP-62 NSCLC
[3] = test system: SF-539 CNS
[4] = test system: CAKI-1 renal
[5] = test system: A498 renal
[6] = test system: HS 578T breast
[7] = test system: PC-3 prostate
[8] = test system: TK-10 renal
[9] = test system: MCF7 breast
[10] = test system: SK-OV-3 ovarian

SMILES | GI50 [1] | TGI [1] | GI50 [2] | TGI [2] | GI50 [3] | TGI [3] | GI50 [4] | TGI [4] | GI50 [5] | TGI [5] | GI50 [6] | TGI [6] | GI50 [7] | TGI [7] | GI50 [8] | TGI [8] | GI50 [9] | TGI [9] | GI50 [10] | TGI [10]
COc1ccc(OC)c2c1[nH]c(=O)c1c3ncccc3cn21 | 3.27 µM | > 100 µM | 3.22 µM | > 100 µM | 3.96 µM | > 100 µM | 3.23 µM | > 100 µM | 3.95 µM | > 100 µM | 5.37 µM | > 100 µM | 4.73 µM | > 100 µM | 4.07 µM | 13.6 µM | 2.17 µM | 27.3 µM | 4.63 µM | > 100 µM
COc1cc(Nc2nc3ccccc3cc2C(=O)Nc2ccc(F)c(F)c2)cc(OC)c1OC | 2.91 µM | > 100 µM | 2.73 µM | 12.2 µM | 3.65 µM | > 100 µM | 2.72 µM | > 100 µM | 2.39 µM | 8.25 µM | 2.8 µM | 13.6 µM | 2.21 µM | 7.9 µM | 4.52 µM | > 100 µM | 2.16 µM | 8.4 µM | 2.65 µM | 7.8 µM
CC(C)(C)[Si](C)(C)OC1[C@@H](O[Si](C)(C)C(C)(C)C)[C@@H](CNC(=O)NC(=O)CCl)O[C@H]1n1cnc2c(NC(=O)Nc3ccccc3)ncnc21 (some centres not stated) | 1.77 µM | 6.56 µM | 0.348 µM | 0.953 µM | 0.837 µM | 1.58 µM | 0.989 µM | 2.82 µM | 0.902 µM | 2.11 µM | 1.3 µM | 12.5 µM | 0.381 µM | 1.19 µM | 0.978 µM | 1.88 µM | 0.76 µM | 1.62 µM | 0.799 µM | 1.5 µM
COc1ccc(C(=O)c2cc3c(N)c(C(=O)Nc4ccc(C)cc4)sc3nc2C)cc1 | 1.27 µM | > 100 µM | 4.43 µM | 31.5 µM | 2.5 µM | 9.38 µM | 2.35 µM | 20.4 µM | 1.5 µM | 9.59 µM | 2.29 µM | 17.9 µM | 4.2 µM | > 100 µM | 6.81 µM | 25.2 µM | 1.43 µM | > 100 µM | 5.59 µM | 33.1 µM
COc1cc(CNc2ccccc2C(=O)N2CCN(C(=O)c3cc(-c4cc(OC)c(OC)c(OC)c4)n4nc(-c5ccccc5)cc4n3)CC2)cc(OC)c1OC | 4.25 µM | > 100 µM | 6.04 µM | > 100 µM | 2.54 µM | > 100 µM | 1.39 µM | > 100 µM | 2.15 µM | 20.8 µM | 3.8 µM | > 100 µM | 2.35 µM | > 100 µM | 6.85 µM | > 100 µM | 3.01 µM | > 100 µM | 4.42 µM | 38.4 µM
O=C1/C(=C\c2ccccn2)c2ccccc2N1c1c(Cl)cccc1Cl | 2.11 µM | 5.3 µM | 2.07 µM | 5.04 µM | 2.44 µM | 6.33 µM | 1.83 µM | – | 2.1 µM | 5.98 µM | 3.92 µM | 37.4 µM | 2.79 µM | > 26.3 µM | 3.39 µM | 12.7 µM | 2.41 µM | 14.3 µM | 3.01 µM | 10.2 µM
O=c1c(Cl)c(Cl)c(=O)c2sc3cc(Cl)ccc3[nH]c1=2 | – | > 100 µM | – | > 100 µM | – | > 100 µM | – | > 100 µM | – | > 100 µM | – | > 100 µM | – | > 100 µM | – | > 100 µM | – | > 100 µM | – | > 100 µM
Nc1ccn(C2OC(COC(=O)C34CC5CC(CC(C5)C3)C4)C(O)C2O)c(=O)n1 (configuration not stated) | – | > 100 µM | – | – | – | > 100 µM | – | > 100 µM | – | > 100 µM | – | > 100 µM | – | > 100 µM | – | > 100 µM | – | > 100 µM | – | > 100 µM
Cc1nc(N2CCC3(CC2)CO[C@@H](C)[C@H]3N)c(CO)nc1Sc1ccnc(N)c1Cl | > 100 µM | > 100 µM | 28 µM | > 100 µM | 7.43 µM | > 100 µM | 0.194 µM | > 100 µM | 0.657 µM | > 100 µM | 11 µM | 99.1 µM | > 100 µM | > 100 µM | 0.336 µM | > 100 µM | > 92.4 µM | > 100 µM | 0.789 µM | > 100 µM
COc1cccc(NC(=O)c2sc3nc4c(cc3c2N)C(=O)CCC4)c1 | 0.0686 µM | > 100 µM | 0.337 µM | > 100 µM | 0.108 µM | 0.587 µM | 0.882 µM | > 100 µM | 0.0521 µM | 0.83 µM | 0.0816 µM | > 100 µM | 0.11 µM | > 100 µM | > 100 µM | > 100 µM | 0.0443 µM | > 100 µM | 0.183 µM | > 78.1 µM
NC(=O)c1cccc(Nc2nccc(Nc3cccc4[nH]ncc34)n2)c1 | > 25 µM | > 25 µM | 9.28 µM | > 25 µM | 6.24 µM | > 21.7 µM | 14.6 µM | > 25 µM | 5 µM | 22.7 µM | 0.557 µM | 3.21 µM | 8.73 µM | > 25 µM | 20.5 µM | > 25 µM | 9.49 µM | > 25 µM | 8.45 µM | > 25 µM
CN1C(=O)N[C@H]2[C@@H]3NC(=O)c4ccc(Br)n4[C@@H]3C[C@]21O | 0.979 µM | 8.49 µM | 0.117 µM | 1.09 µM | 0.0825 µM | 0.447 µM | 2.4 µM | 13.1 µM | 0.27 µM | 1.17 µM | 0.102 µM | 1.42 µM | 0.475 µM | 5.42 µM | 0.429 µM | 4.51 µM | 0.0281 µM | 1.08 µM | 1.37 µM | 5.5 µM
Cc1ccc(S(=O)(=O)NNC(=O)c2cc(C)c(C)cc2N)cc1 | – | > 100 µM | – | > 100 µM | – | > 100 µM | – | > 100 µM | – | > 100 µM | – | > 100 µM | – | > 100 µM | – | – | – | > 100 µM | – | > 100 µM
